# Assays:
# [1] = tested on: human MV411 human acute myelogenous leukemia (AML) xenograft; assay: AML xenograft model in female SCID mice; format: in vivo, mouse
# Description: The objective of the first study was to evaluate antitumor activities of the novel multiple-kinase inhibitor NTW-3475 against human MV411 human acute myelogenous leukemia (AML) xenograft model in female SCID mice.
# Four or six animals were randomly assigned to each study group. Each animal was injected subcutaneously in the left and right flank area with 0.1 ml of 1.0×10^8 MV411 cells per mL.
# (§1) Each test or control animal was placed on a 5-day on, two-day off for two cycles of vehicle negative control or 25, 50 mg/kg of NTW-3475. Tumor growth was measured with a digital hand held caliper twice weekly (once tumor emerges) prior to the first dosing and then two to three times weekly until euthanized. Animals were weighed prior to tumor cell injection, prior to dosing, two to three times weekly with tumor growth measurements, and prior to euthanasia.
# The objective of the first study was to evaluate antitumor activities of the novel multiple-kinase inhibitor Compounds 11, 68, and 82 against human MV411 human acute myelogenous leukemia (AML) xenograft model in female SCID mice.
# as §1, with “compound.” for “NTW-3475.”
# [2] = tested on: NCI 60 cancer cell line panel; assay: NCI-60 DTP Human Tumor Cell Line Panel, SRB growth inhibition; format: cell-based; conditions: cell lines from the NCI 60 panel
# Description: The human tumor cell lines of the cancer screening panel are grown in RPMI 1640 medium containing 5% fetal bovine serum and 2 mM L-glutamine. For a typical screening experiment, cells are inoculated into 96 well microtiter plates in 100 μL at plating densities ranging from 5,000 to 40,000 cells/well depending on the doubling time of individual cell lines. After cell inoculation, the microtiter plates are incubated at 37° C., 5% CO2, 95% air and 100% relative humidity for 24 h prior to addition of experimental drugs.
# After 24 h, two plates of each cell line are fixed in situ with TCA, to represent a measurement of the cell population for each cell line at the time of drug addition (Tz). Experimental drugs are solubilized in dimethyl sulfoxide at 400-fold the desired final maximum test concentration and stored frozen prior to use. At the time of drug addition, an aliquot of frozen concentrate is thawed and diluted to twice the desired final maximum test concentration with complete medium containing 50 μg/ml gentamicin. Additional four, 10-fold or ½ log serial dilutions are made to provide a total of five drug concentrations plus control. Aliquots of 100 μl of these different drug dilutions are added to the appropriate microtiter wells already containing 100 μl of medium, resulting in the required final drug concentrations.
# Following drug addition, the plates are incubated for an additional 48 h at 37° C., 5% CO2, 95% air, and 100% relative humidity. For adherent cells, the assay is terminated by the addition of cold TCA. Cells are fixed in situ by the gentle addition of 50 μl of cold 50% (w/v) TCA (final concentration, 10% TCA) and incubated for 60 minutes at 4° C. The supernatant is discarded, and the plates are washed five times with tap water and air dried. Sulforhodamine B (SRB) solution (100 μl) at 0.4% (w/v) in 1% acetic acid is added to each well, and plates are incubated for 10 minutes at room temperature. After staining, unbound dye is removed by washing five times with 1% acetic acid and the plates are air dried. Bound stain is subsequently solubilized with 10 mM trizma base, and the absorbance is read on an automated plate reader at a wavelength of 515 nm. For suspension cells, the methodology is the same except that the assay is terminated by fixing settled cells at the bottom of the wells by gently adding 50 μl of 80% TCA (final concentration, 16% TCA). Using the seven absorbance measurements [time zero, (Tz), control growth, (C), and test growth in the presence of drug at the five concentration levels (Ti)], the percentage growth is calculated at each of the drug concentrations levels. Percentage growth inhibition is calculated as: [(Ti−Tz)/(C−Tz)]×100 for concentrations for which Ti>/=Tz [(Ti−Tz)/Tz]×100 for concentrations for which Ti<Tz.
# Three dose response parameters are calculated for each experimental agent.
# [3] = tested on: human MIAPaCa-2 pancreatic carcinoma xenograft; assay: Pancreatic carcinoma xenograft in athymic nude mice; format: in vivo, mouse; conditions: MIAPaCa-2 xenograft
# Description: The objective of the third study was to evaluate antitumor activities of novel multiple-kinase inhibitor NTW-3475 in human MIAPaCa-2 pancreatic carcinoma xenograft in athymic nude-Faxn1 mice.
# Four animals were randomly assigned to study groups. Each animal was weighed, and then injected subcutaneously in the left and right flank area with 0.1 ml of 5.0×10^7 MIAPaCa-2 cells per mL.
# Each test or control animal was on a 5-day on, two-day off for two cycles treatment schedule with negative control vehicle, positive control Abraxane at 20 mg/kg or 25, 50 mg/kg of NTW-3475. Tumor growth was measured with a digital hand held caliper twice weekly (once tumor emerges) prior to the first dosing and then two to three times weekly until euthanized.
# The objective of the third study was to evaluate antitumor activities of novel multiple-kinase inhibitor Compound 10, 11, 12, 53, 68, 82, 83, 88, and 90 in human MIAPaCa-2 pancreatic carcinoma xenograft in athymic nude-Faxn1 mice.
# Each test or control animal was on a 5-day on, two-day off for three cycles treatment schedule with negative control vehicle or 40 mg/kg of Compound 10, 11, 12, 53, 68, 82, 83, 88 and 90. Tumor growth was measured with a digital hand held caliper twice weekly (once tumor emerges) prior to the first dosing and then two to three times weekly until euthanized.
# [4] = tested on: TT human Thyroid carcinoma xenograft; assay: Thyroid carcinoma xenograft; format: in vivo, mouse
# Description: This example assesses Compound 10, 53 and 88's anti-tumor activity using a SCID mouse xenograft models for TT human Thyroid carcinoma xenograft (FIGS. 65 to 69.)
# On the appropriate days, each animal in an appropriate group will receive a specific amount of Compound 10 either at 50 or 100 mg/kg, and the dosing volume is 10 ml/kg by oral gavage as indicated. Dosing schedule will be once daily for 30 days.
# On the appropriate days, each animal in an appropriate group will receive a specific amount of Compound 53 either at 50 or 100 mg/kg, and the dosing volume is 10 ml/kg by oral gavage as indicated. Dosing schedule will be once daily for 30 days.
# Dosing schedule will be once daily for 30 days.
# [5] = tested on: AN3 human endometrial carcinoma xenograft; assay: Endometrial carcinoma xenograft; format: in vivo, mouse
# [6] = tested on: human K562 chronic myelogenous leukemia (CML) xenograft; assay: CML xenograft model in female SCID mice; format: in vivo, mouse
# Description: The objective of the second study was to evaluate antitumor activities of novel multiple-kinase inhibitor NTW-3475 in human K562 chronic myelogenous leukemia (CML) xenograft model in female SCID mice.
# Four to six animals were randomly assigned to study groups. Each animal was weighed, and then injected subcutaneously in the left and right flank area with 0.1 ml of 8.0×10^7 K562 cells per mL.
# as §1, with “was” for “was placed”, “treatment schedule.” for “of vehicle negative control or 25, 50 mg/kg of NTW-3475.”
# This example illustrated antitumor activities of Compound 10 and 11 in human K562 chronic myelogenous leukemia (CML) xenograft model in female SCID mice.
# On the appropriate days, each animal in an appropriate group will receive a specific amount of test article either at 75 or 100 mg/kg, and the dosing volume is 10 ml/kg by oral gavage as indicated. Dosing schedule will be once daily for 10 days (qd×10, 5 days on and 2 days off for 2 cycles).
smiles,measurement,setting,value
Cc1cc2c(F)c(Oc3nc(Nc4cc(C5CC5)[nH]n4)cc(N4CCN(C)CC4)n3)cc(F)c2[nH]1 [NTW-3475],anti-tumor effect,[1],strong anti-tumor effect
same,body weight change,[1],minimal body weight lost
same,antiproliferative activity,[2],strong antiproliferative activity
same,anti-tumor effect in combination with Abraxane,[3]; combination with Abraxane,anti-tumor effect
same,anti-tumor effect,"[3]; nude mice, single agent",strong anti-tumor effect
same,anti-tumor effect,[4],anti-tumor effect
same,anti-tumor effect,[5],anti-tumor effect
same,anti-tumor effect,[6],strong anti-tumor effect

# Source: patent publication US10245261B2, “Substituted indol-5-ol derivatives and their therapeutic applications” (NantBioScience, Inc., priority 2013, dated 2019)
